Data taken from PubChem BioAssay (NCI).
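Following 48 hours of exposure in 96-well plates, responses at five concentrations were used to interpolate endpoints linearly. The concentration for full growth arrest is given as TGI.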

Legend:
Experiment in all cases: DTP human tumour cell line panel, 48 h
RPMI-8226 leukemia = test system: RPMI-8226 leukemia
NCI/ADR-RES ovarian = test system: NCI/ADR-RES ovarian
UO-31 renal = test system: UO-31 renal
786-0 renal = test system: 786-0 renal
MOLT-4 leukemia = test system: MOLT-4 leukemia
T-47D breast = test system: T-47D breast
MCF7 breast = test system: MCF7 breast
SK-MEL-2 melanoma = test system: SK-MEL-2 melanoma
SK-MEL-28 melanoma = test system: SK-MEL-28 melanoma
CAKI-1 renal = test system: CAKI-1 renal
EKVX NSCLC = test system: EKVX NSCLC
LOX IMVI melanoma = test system: LOX IMVI melanoma
A549 NSCLC = test system: A549 NSCLC
KM12 colon = test system: KM12 colon
HOP-92 NSCLC = test system: HOP-92 NSCLC
HCT-116 colon = test system: HCT-116 colon
DU-145 prostate = test system: DU-145 prostate
SW-620 colon = test system: SW-620 colon
HS 578T breast = test system: HS 578T breast
SF-295 CNS = test system: SF-295 CNS
BT-549 breast = test system: BT-549 breast
NCI-H522 lung = test system: NCI-H522 lung
U251 CNS = test system: U251 CNS
SF-539 CNS = test system: SF-539 CNS
IGROV1 ovarian = test system: IGROV1 ovarian
OVCAR-8 ovarian = test system: OVCAR-8 ovarian
K-562 leukemia = test system: K-562 leukemia
SN12C renal = test system: SN12C renal
TK-10 renal = test system: TK-10 renal
SNB-75 CNS = test system: SNB-75 CNS
SR leukemia = test system: SR leukemia
OVCAR-5 ovarian = test system: OVCAR-5 ovarian
OVCAR-4 ovarian = test system: OVCAR-4 ovarian
MALME-3M melanoma = test system: MALME-3M melanoma
HCT-15 colon = test system: HCT-15 colon
NCI-H23 lung = test system: NCI-H23 lung
MDA-MB-435 = test system: MDA-MB-435
MDA-MB-231 breast = test system: MDA-MB-231 breast
NCI-H226 lung = test system: NCI-H226 lung
RXF 393 renal = test system: RXF 393 renal
SK-OV-3 ovarian = test system: SK-OV-3 ovarian
MDA-N = test system: MDA-N
HL-60(TB) leukemia = test system: HL-60(TB) leukemia
UACC-257 melanoma = test system: UACC-257 melanoma
UACC-62 melanoma = test system: UACC-62 melanoma
NCI-H460 lung = test system: NCI-H460 lung
HOP-62 NSCLC = test system: HOP-62 NSCLC
A498 renal = test system: A498 renal
ACHN renal = test system: ACHN renal
OVCAR-3 ovarian = test system: OVCAR-3 ovarian
M14 melanoma = test system: M14 melanoma
SF-268 CNS = test system: SF-268 CNS
CCRF-CEM leukemia = test system: CCRF-CEM leukemia
SNB-19 CNS = test system: SNB-19 CNS
HT29 colon = test system: HT29 colon
COLO 205 colon = test system: COLO 205 colon
PC-3 prostate = test system: PC-3 prostate
HCC-2998 colon = test system: HCC-2998 colon
SK-MEL-5 melanoma = test system: SK-MEL-5 melanoma

c1ccc([P+](CCCCCCCC[P+](c2ccccc2)(c2ccccc2)c2ccccc2)(c2ccccc2)c2ccccc2)cc1
TGI (RPMI-8226 leukemia): 23.8 µM
TGI (NCI/ADR-RES ovarian): > 100 µM
TGI (UO-31 renal): > 100 µM
TGI (786-0 renal): > 100 µM
TGI (MOLT-4 leukemia): > 86 µM
TGI (T-47D breast): > 100 µM
TGI (MCF7 breast): > 87.5 µM
TGI (SK-MEL-2 melanoma): 24.7 µM
TGI (SK-MEL-28 melanoma): > 100 µM
TGI (CAKI-1 renal): > 100 µM
TGI (EKVX NSCLC): > 100 µM
TGI (LOX IMVI melanoma): 32.9 µM
TGI (A549 NSCLC): > 100 µM
TGI (KM12 colon): 49.5 µM
TGI (HOP-92 NSCLC): 43.9 µM
TGI (HCT-116 colon): > 100 µM
TGI (DU-145 prostate): > 100 µM
TGI (SW-620 colon): > 100 µM
TGI (HS 578T breast): > 100 µM
TGI (SF-295 CNS): > 72.9 µM
TGI (BT-549 breast): > 100 µM
TGI (NCI-H522 lung): 12.1 µM
TGI (U251 CNS): > 100 µM
TGI (SF-539 CNS): 19.6 µM
TGI (IGROV1 ovarian): > 23.9 µM
TGI (OVCAR-8 ovarian): > 100 µM
TGI (K-562 leukemia): > 100 µM
TGI (SN12C renal): > 100 µM
TGI (TK-10 renal): > 73.7 µM
TGI (SNB-75 CNS): 7.73 µM
TGI (SR leukemia): 51.6 µM
TGI (OVCAR-5 ovarian): > 91.1 µM
TGI (OVCAR-4 ovarian): > 100 µM
TGI (MALME-3M melanoma): > 100 µM
TGI (HCT-15 colon): > 100 µM
TGI (NCI-H23 lung): > 52.8 µM
TGI (MDA-MB-435): > 68.4 µM
TGI (MDA-MB-231 breast): > 100 µM
TGI (NCI-H226 lung): > 100 µM
TGI (RXF 393 renal): > 100 µM
TGI (SK-OV-3 ovarian): > 100 µM
TGI (MDA-N): > 100 µM
TGI (HL-60(TB) leukemia): > 31.8 µM
TGI (UACC-257 melanoma): > 37.7 µM
TGI (UACC-62 melanoma): > 94.4 µM
TGI (NCI-H460 lung): > 48.1 µM
TGI (HOP-62 NSCLC): > 100 µM
TGI (A498 renal): > 86.4 µM
TGI (ACHN renal): > 100 µM
TGI (OVCAR-3 ovarian): > 100 µM
TGI (M14 melanoma): > 100 µM
TGI (SF-268 CNS): > 100 µM
TGI (CCRF-CEM leukemia): > 100 µM
TGI (SNB-19 CNS): > 100 µM
TGI (HT29 colon): > 50 µM
TGI (COLO 205 colon): 2.71 µM
TGI (PC-3 prostate): > 30.8 µM
TGI (HCC-2998 colon): > 100 µM
TGI (SK-MEL-5 melanoma): 40.7 µM
